test system: THP1-Dual™ reporter cells; experiment: THP1-Dual cell reporter assay (IRF-Lucia luciferase reporter); assay type: cell-based, human; settings: ADCs: drug linker conjugated to a targeted mAb, 48 h
Method in brief: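 THP1-Dual monocytic cells (~100,000/well) were exposed to compound for 24 h (ADCs 48 h). Secreted IRF-driven Lucia luciferase in the supernatant was quantified by QUANTI-Luc luminescence.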

| SMILES | EC50 (ng/mL) | EC50 [µg/mL] |
| --- | --- | --- |
| CCn1nc(C)cc1C(=O)Nc1nc2cc(C(N)=O)cc(OC)c2n1C/C=C/Cn1c(NC(=O)c2cccnn2)nc2cc(C(N)=O)cc(OCCCN(C)C(=O)CCN3C(=O)C=CC3=O)c21 [Compound 96] | >10,000 ng/mL | – |
| CCn1nc(C)cc1C(=O)Nc1nc2cc(C(N)=O)cc(OC)c2n1C/C=C/Cn1c(NC(=O)c2ccnnc2)nc2cc(C(N)=O)cc(OCCCN(C)C(=O)CCN3C(=O)C=CC3=O)c21 [Compound 98] | >10,000 ng/mL | – |
| CCn1nc(C)cc1C(=O)Nc1nc2cc(C(N)=O)cc(OC)c2n1C/C=C/Cn1c(NC(=O)c2ncccn2)nc2cc(C(N)=O)cc(OCCCN(C)C(=O)CCN3C(=O)C=CC3=O)c21 [Compound 101] | >10,000 ng/mL | – |
| CCn1cc(C(=O)Nc2nc3cc(C(N)=O)cc(OCCCN(C)C(=O)CCN4C(=O)C=CC4=O)c3n2C/C=C/Cn2c(NC(=O)c3cc(C)nn3CC)nc3cc(C(N)=O)cc(OC)c32)c(C)n1 [Compound 102] | >10,000 ng/mL | – |
| CCn1cc(C)nc1C(=O)Nc1nc2cc(C(N)=O)cc(OCCCN(C)C(=O)CCN3C(=O)C=CC3=O)c2n1C/C=C/Cn1c(NC(=O)c2cc(C)nn2CC)nc2cc(C(N)=O)cc(OC)c21 [Compound 103] | >10,000 ng/mL | – |
| CCc1cc(C(=O)Nc2nc3cc(C(N)=O)cc(OCCCN(C)C(=O)CCN4C(=O)C=CC4=O)c3n2C/C=C/Cn2c(NC(=O)c3cc(C)nn3CC)nc3cc(C(N)=O)cc(OC)c32)n(C)n1 [Compound 104] | >10,000 ng/mL | – |
| CCn1nc(C)cc1C(=O)Nc1nc2cc(C(N)=O)cc(OC)c2n1C/C=C/Cn1c(NC(=O)c2cc(C)nn2C)nc2cc(C(N)=O)cc(OCCCN(C)C(=O)CCN3C(=O)C=CC3=O)c21 [Compound 105] | – | 0.0525 |
| CCc1oc(C)cc1C(=O)Nc1nc2cc(C(N)=O)cc(OCCCN(C)C(=O)CCN3C(=O)C=CC3=O)c2n1C/C=C/Cn1c(NC(=O)c2cc(C)nn2CC)nc2cc(C(N)=O)cc(OC)c21 [Compound 106] | >10,000 ng/mL | – |
| CCn1nc(C)cc1C(=O)Nc1nc2cc(C(N)=O)cc(OC)c2n1C/C=C/Cn1c(NC(=O)c2cc(C)sn2)nc2cc(C(N)=O)cc(OCCCN(C)C(=O)CCN3C(=O)C=CC3=O)c21 [Compound 107] | >10,000 ng/mL | – |
| CCn1nc(C)cc1C(=O)Nc1nc2cc(C(N)=O)cc(OC)c2n1C/C=C/Cn1c(NC(=O)c2ccnn2CC)nc2cc(C(N)=O)cc(OCCCN(C)C(=O)CCN3C(=O)C=CC3=O)c21 [Compound 108] | – | 0.0635 |
| CCn1nc(C)cc1C(=O)Nc1nc2cc(C(N)=O)cc(OC)c2n1C/C=C/Cn1c(NC(=O)c2cc(C(F)(F)F)nn2CC)nc2cc(C(N)=O)cc(OCCCN(C)C(=O)CCN3C(=O)C=CC3=O)c21 [Compound 109] | >10,000 ng/mL | – |
| CCn1nc(C)cc1C(=O)Nc1nc2cc(C(N)=O)cc(OC)c2n1C/C=C/Cn1c(NC(=O)c2c(C)cnn2C)nc2cc(C(N)=O)cc(OCCCN(C)C(=O)CCN3C(=O)C=CC3=O)c21 [Compound 110] | >10,000 ng/mL | – |
| CCc1nc(C)sc1C(=O)Nc1nc2cc(C(N)=O)cc(OCCCN(C)C(=O)CCN3C(=O)C=CC3=O)c2n1C/C=C/Cn1c(NC(=O)c2cc(C)nn2CC)nc2cc(C(N)=O)cc(OC)c21 [Compound 111] | – | 0.0132 |
| CCc1nc(C)oc1C(=O)Nc1nc2cc(C(N)=O)cc(OCCCN(C)C(=O)CCN3C(=O)C=CC3=O)c2n1C/C=C/Cn1c(NC(=O)c2cc(C)nn2CC)nc2cc(C(N)=O)cc(OC)c21 [Compound 112] | – | 0.002 |

same assay, conditions: Homo sapiens, THP1-Dual; free compounds, 24 h, Lucia reporter signal; read-out: EC50

| SMILES | EC50 [nM] |
| --- | --- |
| CCc1nc(C)sc1C(=O)Nc1nc2cc(C(N)=O)cc(OCCCNC)c2n1C/C=C/Cn1c(NC(=O)c2cc(C)nn2CC)nc2cc(C(N)=O)cc(OC)c21 [Compound 94] | 133 |
| CCc1nc(C)oc1C(=O)Nc1nc2cc(C(N)=O)cc(OCCCNC)c2n1C/C=C/Cn1c(NC(=O)c2cc(C)nn2CC)nc2cc(C(N)=O)cc(OC)c21 [Compound 95] | 12.9 |

Source: US20240123079A1 (Seagen Inc., priority 2021, published 2024)
